According to US9315503B2, “Kinase inhibitors” (CHIESI FARMACEUTICI S.p.A., priority 2011, dated 2016):
pIC50: −log10 of the molar value. Where a name gives a salt, the structure may show the parent alone.

Assays:
p38alpha = biological target: T1, p38alpha (Homo sapiens, UniProt Q16539); assay: P38Alpha enzyme inhibition assay (Alphascreen kinase activity assay); format: biochemical; settings: 100 pM p38alpha, 250 μM ATP, 2 hours pre-incubation at 25° C., read-out: p38α inhibition (IC50 values)
T1 construct: purchased Invitrogen PV3304
In short: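 p38α (100 pM) with ATF-2 fusion protein substrate (0.3 µg/ml) in pH 7.5 HEPES/MgCl2 buffer, 1% DMSO, preincubated 2 h at 25°C with compound. Reaction started with 250 µM ATP, ran 1 h at 25°C, then stopped with EDTA. Phospho-ATF2 antibody detected by AlphaScreen luminescence; IC50 from concentration-response curves.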

[1] = tested on: LPS-stimulated TNFα release from PBMCs; assay: LPS-stimulated PBMC TNFα release assay; format: cell-based; settings: inhibition of TNFα release, human PBMCs, LPS 10 ng/ml, 18 h, ELISA, read-out: p38α inhibition (IC50 values)
In short: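 Healthy-donor human PBMCs, density-gradient isolated, preincubated 1 h at 37 °C with compound in 1% FBS RPMI 1640, then stimulated with LPS (10 ng/ml) for 18 h. Supernatant TNFα by ELISA; IC50 from dose-response of % inhibition of control release, n≥3 experiments.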

T1 sequence (Q16539 whole entry): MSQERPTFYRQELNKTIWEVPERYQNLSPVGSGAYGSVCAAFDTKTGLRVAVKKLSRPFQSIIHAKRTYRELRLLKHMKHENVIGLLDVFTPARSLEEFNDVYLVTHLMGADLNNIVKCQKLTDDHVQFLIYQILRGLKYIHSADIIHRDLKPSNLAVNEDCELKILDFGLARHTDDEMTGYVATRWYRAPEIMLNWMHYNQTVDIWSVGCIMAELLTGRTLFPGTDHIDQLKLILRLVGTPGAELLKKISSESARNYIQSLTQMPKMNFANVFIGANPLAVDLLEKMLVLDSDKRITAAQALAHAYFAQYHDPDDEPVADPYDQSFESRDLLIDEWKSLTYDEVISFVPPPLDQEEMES

SMILES | pIC50 (p38alpha) | pIC50 [1]
Cc1ccc(-n2nc(C(C)(C)C)cc2NC(=O)N[C@H]2CC[C@@H](Oc3ccc4nnc([C@H]5CCCN(C)C5)n4c3)c3ccccc32)cc1 [Example 88, 1-(5-tert-Butyl-2-p-tolyl-2H-pyrazol-3-yl)-3-{(1S,4R)-4-[3-((S)-1-methyl-piperidin-3-yl)-[1,2,4]triazolo[4,3-a]pyridin-6-yloxy]-1,2,3,4-tetrahydro-naphthalen-1-yl}-urea] | > 8.00 | > 8.00
Cc1ccc(-n2nc(C(C)(C)C)cc2NC(=O)N[C@H]2CC[C@@H](Oc3ccc4nnc([C@@H]5CCCN(C)C5)n4c3)c3ccccc32)cc1 [Example 89, 1-(5-tert-Butyl-2-p-tolyl-2H-pyrazol-3-yl)-3-{(1S,4R)-4-[3-((R)-1-methyl-piperidin-3-yl)-[1,2,4]triazolo[4,3-a]pyridin-6-yloxy]-1,2,3,4-tetrahydro-naphthalen-1-yl}-urea] | > 8.00 | > 8.00
Cc1ccc(-n2nc(C(C)(C)C)cc2NC(=O)N[C@H]2CC[C@@H](Oc3ccc4nnc([C@@H]5CCN(C)C5)n4c3)c3ccccc32)cc1 [Example 90, 1-(5-tert-Butyl-2-p-tolyl-2H-pyrazol-3-yl)-3-{(1S,4R)-4-[3-((R)-1-methyl-pyrrolidin-3-yl)-[1,2,4]triazolo[4,3-a]pyridin-6-yloxy]-1,2,3,4-tetrahydro-naphthalen-1-yl}-urea] | > 8.00 | > 8.00
Cc1ccc(-n2nc(C(C)(C)C)cc2NC(=O)N[C@H]2CC[C@@H](Oc3ccc4nnc(N5CC[C@H](CO)C5)n4c3)c3ccccc32)cc1 [Example 92, 1-(5-tert-Butyl-2-p-tolyl-2H-pyrazol-3-yl)-3-{(1S,4R)-4-[3-((S)-3-hydroxymethyl-pyrrolidin-1-yl)-[1,2,4]triazolo[4,3-a]pyridin-6-yloxy]-1,2,3,4-tetrahydro-naphthalen-1-yl}-urea] | > 8.00 | > 8.00
Cc1ccc(-n2nc(C(C)(C)C)cc2NC(=O)N[C@H]2CC[C@@H](Oc3ccc4nnc(N5CC[C@@H](CO)C5)n4c3)c3ccccc32)cc1 [Example 93, 1-(5-tert-Butyl-2-p-tolyl-2H-pyrazol-3-yl)-3-{(1S,4R)-4-[3-((R)-3-hydroxymethyl-pyrrolidin-1-yl)-[1,2,4]triazolo[4,3-a]pyridin-6-yloxy]-1,2,3,4-tetrahydro-naphthalen-1-yl}-urea] | > 8.00 | > 8.00
Cc1ccc(-n2nc(C(C)(C)C)cc2NC(=O)N[C@H]2CC[C@@H](Oc3ccc4nnc(N5CCN(CCO)CC5)n4c3)c3ccccc32)cc1 [Example 94, 1-(5-tert-Butyl-2-p-tolyl-2H-pyrazol-3-yl)-3-((1S,4R)-4-{3-[4-(2-hydroxy-ethyl)-piperazin-1-yl]-[1,2,4]triazolo[4,3-a]pyridin-6-yloxy}-1,2,3,4-tetrahydro-naphthalen-1-yl)-urea] | > 8.00 | 7.00 to 8.00
C[C@H]1CCCCN1c1nnc2ccc(O[C@@H]3CC[C@H](NC(=O)Nc4cc(C(C)(C)C)nn4-c4cccc(OCCN(C)C)c4)c4ccccc43)cn12 [Example 95] | > 8.00 | > 8.00
C[C@@H]1CCC[C@H](C)N1c1nnc2ccc(O[C@@H]3CC[C@H](NC(=O)Nc4cc(C(C)(C)C)nn4-c4cccc(OCCN(C)C)c4)c4ccccc43)cn12 [Example 96, 1-{5-tert-Butyl-2-[3-(2-dimethylamino-ethoxy)-phenyl]-2H-pyrazol-3-yl}-3-{(1S,4R)-4-[3-(cis-2,6-dimethyl-piperidin-1-yl)-[1,2,4]triazolo[4,3-a]pyridin-6-yloxy]-1,2,3,4-tetrahydro-naphthalen-1-yl}-urea formate salt] | > 8.00 | > 8.00
C[C@H]1CCCCN1c1nnc2ccc(O[C@@H]3CC[C@H](NC(=O)Nc4cc(C(C)(C)C)nn4-c4cccc(CN5CCOCC5)c4)c4ccccc43)cn12 [Example 97, 1-[5-tert-Butyl-2-(3-morpholin-4-ylmethyl-phenyl)-2H-pyrazol-3-yl]-3-{(1S,4R)-4-[3-((S)-2-methyl-piperidin-1-yl)-[1,2,4]triazolo[4,3-a]pyridin-6-yloxy]-1,2,3,4-tetrahydro-naphthalen-1-yl}-urea formate salt] | > 8.00 | > 8.00
C[C@H]1CCCCN1c1nnc2ccc(O[C@@H]3CC[C@H](NC(=O)Nc4cc(C(C)(C)C)nn4-c4cccc(CN5CCN(C)CC5)c4)c4ccccc43)cn12 [Example 98, 1-{5-tert-Butyl-2-[3-(4-methyl-piperazin-1-ylmethyl)-phenyl]-2H-pyrazol-3-yl}-3-{(1S,4R)-4-[3-((S)-2-methyl-piperidin-1-yl)-[1,2,4]triazolo[4,3-a]pyridin-6-yloxy]-1,2,3,4-tetrahydro-naphthalen-1-yl}-urea formate salt] | > 8.00 | > 8.00
Cc1ccc(-n2nc(C(C)(C)C)cc2NC(=O)N[C@H]2CC[C@@H](Oc3ccc4nnc(C5(N(C)C)CCCC5)n4c3)c3ccccc32)cc1 [Example 99, 1-(5-tert-Butyl-2-p-tolyl-2H-pyrazol-3-yl)-3-{(1S,4R)-4-[3-(1-dimethylamino-cyclopentyl)-[1,2,4]triazolo[4,3-a]pyridin-6-yloxy]-1,2,3,4-tetrahydro-naphthalen-1-yl}-urea] | > 8.00 | > 8.00
Cc1ccc(-n2nc(C(C)(C)C)cc2NC(=O)N[C@H]2CC[C@@H](Oc3ccc4nnc(N5[C@H](C)CCC[C@@H]5C)n4c3)c3ccccc32)cc1 [Example 100, 1-(5-tert-Butyl-2-p-tolyl-2H-pyrazol-3-yl)-3-{(1S,4R)-4-[3-((2S,6R)-2,6-dimethyl-piperidin-1-yl)-[1,2,4]triazolo[4,3-a]pyridin-6-yloxy]-1,2,3,4-tetrahydro-naphthalen-1-yl}-urea] | > 8.00 | > 8.00
Cc1ccc(-n2nc(C(C)(C)C)cc2NC(=O)N[C@H]2CC[C@@H](Oc3ccc4nnc(N)n4c3)c3ccccc32)cc1 [Example 101, 1-[(1S,4R)-4-(3-Amino-[1,2,4]triazolo[4,3-a]pyridin-6-yloxy)-1,2,3,4-tetrahydro-naphthalen-1-yl]-3-(5-tert-butyl-2-p-tolyl-2H-pyrazol-3-yl)-urea] | > 8.00 | > 8.00
Cc1ccc(-n2nc(C(C)(C)C)cc2NC(=O)N[C@H]2CC[C@@H](Oc3ccc4nnc(N5CCCCC5)n4c3)c3ccccc32)cn1 [Example 102, 1-[5-tert-Butyl-2-(6-methyl-pyridin-3-yl)-2H-pyrazol-3-yl]-3-[(1S,4R)-4-(3-piperidin-1-yl-[1,2,4]triazolo[4,3-a]pyridin-6-yloxy)-1,2,3,4-tetrahydro-naphthalen-1-yl]-urea] | > 8.00 | > 8.00
CC(C)N(c1nnc2ccc(O[C@@H]3CC[C@H](NC(=O)Nc4cc(C(C)(C)C)nn4-c4cccc(OCCN(C)C)c4)c4ccccc43)cn12)C(C)C [Example 103, 1-{5-tert-Butyl-2-[3-(2-dimethylamino-ethoxy)-phenyl]-2H-pyrazol-3-yl}-3-[(1S,4R)-4-(3-diisopropylamino-[1,2,4]triazolo[4,3-a]pyridin-6-yloxy)-1,2,3,4-tetrahydro-naphthalen-1-yl]-urea] | > 8.00 | > 8.00
COc1c(NC(=O)N[C@H]2CC[C@@H](Oc3ccc4nnc(N5CCCCC5)n4c3)c3ccccc32)cc(C(C)(C)C)cc1NS(C)(=O)=O [Example 104, N-(5-tert-Butyl-2-methoxy-3-{3-[(1S,4R)-4-(3-piperidin-1-yl-[1,2,4]triazolo[4,3-a]pyridin-6-yloxy)-1,2,3,4-tetrahydro-naphthalen-1-yl]-ureido}-phenyl)-methanesulfonamide] | > 8.00 | > 8.00
Cc1ccc(-n2nc(C(C)(C)C)cc2NC(=O)N[C@H]2CC[C@@H](Oc3cc(C)c4nnc([C@@H]5CCCN5C)n4c3)c3ccccc32)cc1 [Example 105, 1-(5-tert-Butyl-2-p-tolyl-2H-pyrazol-3-yl)-3-{(1S,4R)-4-[8-methyl-3-((S)-1-methyl-pyrrolidin-2-yl)-[1,2,4]triazolo[4,3-a]pyridin-6-yloxy]-1,2,3,4-tetrahydro-naphthalen-1-yl}-urea] | > 8.00 | > 8.00
CN1CCN(Cc2ccc(-n3nc(C(C)(C)C)cc3NC(=O)N[C@H]3CC[C@@H](Oc4ccc5nnc(N6CCCCC6)n5c4)c4ccccc43)cc2)CC1 [Example 106, 1-{5-tert-Butyl-2-[4-(4-methyl-piperazin-1-ylmethyl)-phenyl]-2H-pyrazol-3-yl}-3-[(1S,4R)-4-(3-piperidin-1-yl-[1,2,4]triazolo[4,3-a]pyridin-6-yloxy)-1,2,3,4-tetrahydro-naphthalen-1-yl]-urea] | > 8.00 | > 8.00
Cn1cc(-n2nc(C(C)(C)C)cc2NC(=O)N[C@H]2CC[C@@H](Oc3ccc4nnc(N5CCCCC5)n4c3)c3ccccc32)cn1 [Example 107, 1-(3-tert-Butyl-1′-methyl-1′H-[1,4′]bipyrazolyl-5-yl)-3-[(1S,4R)-4-(3-piperidin-1-yl-[1,2,4]triazolo[4,3-a]pyridin-6-yloxy)-1,2,3,4-tetrahydro-naphthalen-1-yl]-urea] | > 8.00 | > 8.00
CN(C)CCn1cc(-n2nc(C(C)(C)C)cc2NC(=O)N[C@H]2CC[C@@H](Oc3ccc4nnc(N5CCCCC5)n4c3)c3ccccc32)cn1 [Example 108, 1-[3-tert-Butyl-1′-(2-dimethylamino-ethyl)-1′H-[1,4′]bipyrazolyl-5-yl]-3-[(1S,4R)-4-(3-piperidin-1-yl-[1,2,4]triazolo[4,3-a]pyridin-6-yloxy)-1,2,3,4-tetrahydro-naphthalen-1-yl]-urea] | > 8.00 | > 8.00
